The record followed here is PubChem BioAssay AID1259408 (Genetic Toxicology Data Bank (GENE-TOX), 2018).

Each structure is given as a SMILES string. Calls of active or inactive are those of the source. No rule for the calls is given here.

The data set deals with GENE-TOX genotoxicity assays, various organisms and cells. The experiment in a line: GENE-TOX mutagenicity studies. The conditions noted are these: for call: Assay Type: In vivo carcinogenicity studies.
Where [1] appears, read: Species/Cell Type: Chinese hamster lung (V79) cells, Assay Type: Forward gene mutation at the HPRT or ouabain locus, Assay Code: V79+, Evaluation Type: Evaluation A (Pre-1980).
Setting [2] is: Species/Cell Type: Human, Assay Type: Sister-chromatid exchange (SCE) in vitro, Assay Code: SC1+D, Dose Response: With dose response, Evaluation Type: Evaluation B (Post-1980).
[3] abbreviates: Species/Cell Type: Mammalian polychromatic erythrocytes, Assay Type: Micronucleus test, chromosome aberrations, Assay Code: MNTT, Evaluation Type: Evaluation A (Pre-1980).
[4] abbreviates: Species/Cell Type: Nonhuman, Assay Code: CCGT, Evaluation Type: Evaluation A (Pre-1980).
Where [5] appears, read: Species/Cell Type: Saccharomyces cerevisiae, Assay Type: Mitotic recombination or gene conversion, Assay Code: YEH-, Evaluation Type: Evaluation A (Pre-1980).
The mark [6] stands for this setting: Species/Cell Type: Salmonella typhimurium (one or more of the five standard strains: TA98, TA100, TA1535, TA1537, and TA1538), Assay Type: Histidine reverse gene mutation, Ames assay, Assay Code: SAL-, Evaluation Type: Evaluation A (Pre-1980).
Where [7] appears, read: Species/Cell Type: Salmonella typhimurium (one or more of the five standard strains: TA98, TA100, TA1535, TA1537, and TA1538), Assay Type: Histidine reverse gene mutation, Ames assay, Assay Code: SALT, Evaluation Type: Evaluation A (Pre-1980).
Where [8] appears, read: Species/Cell Type: Salmonella typhimurium (one or more of the five standard strains: TA98, TA100, TA1535, TA1537, and TA1538), Assay Type: Histidine reverse gene mutation, Ames assay, Assay Code: SAL+, Evaluation Type: Evaluation A (Pre-1980).
[9] abbreviates: Species/Cell Type: Nonhuman, Assay Type: Sister-chromatid exchange (SCE) in vitro, Assay Code: SC2+, Evaluation Type: Evaluation B (Post-1980).

With `O=C(O)COc1ccc(Cl)cc1Cl`, the mutagenic call runs as follows: (Species/Cell Type: Allium cepa, Assay Type: Chromosome aberrations, Assay Code: ALC+, Evaluation Type: Evaluation A (Pre-1980)) “active; positive”; (Species/Cell Type: Bacillus subtilis (H17 vs M45), Assay Type: Rec-assay, spot test, DNA effects (bacterial DNA repair), Assay Code: REW+, Evaluation Type: Evaluation A (Pre-1980)) “active; positive”; under setting [1], “active; positive”; (Species/Cell Type: Drosophila melanogaster, Assay Type: Aneuploidy, sex chromosome gain, chromosome aberrations, Assay Code: DAG-M-F, Evaluation Type: Evaluation A (Pre-1980)) “inactive; negative”; (Species/Cell Type: Drosophila melanogaster, Assay Type: Aneuploidy, whole sex chromosome loss, chromosome aberrations, Assay Code: DAC-M-F, Evaluation Type: Evaluation A (Pre-1980)) “inactive; negative”; (Species/Cell Type: Drosophila melanogaster, Assay Type: Sex-linked recessive lethal gene mutation, Assay Code: SRL-, Evaluation Type: Evaluation A (Pre-1980)) “inactive; negative”. Further, the mutagenic call is “inactive; negative” (Species/Cell Type: Escherichia coli WP2 UVRA, Assay Type: Tryptophan reverse gene mutation, Assay Code: WPU-*, Activation: With metabolic activation, Evaluation Type: Evaluation A (Pre-1980)); “active; positive” (Species/Cell Type: Escherichia coli polA (W3119 vs P3478), Assay Type: Rec-assay, DNA effects (bacterial DNA repair), Assay Code: RE1+, Evaluation Type: Evaluation A (Pre-1980)); “inactive; negative” (Species/Cell Type: Human diploid fibroblasts, Assay Type: Unscheduled DNA synthesis (UDS) in vitro, DNA effects, Assay Code: UDH-, Evaluation Type: Evaluation A (Pre-1980)); “active; positive” (Species/Cell Type: Human lymphocytes or leukocytes, Assay Type: Chromosome aberrations in vitro, Assay Code: CY7+, Evaluation Type: Evaluation A (Pre-1980)); “active; positive” (Species/Cell Type: Human lymphocytes, Assay Type: Sister-chromatid exchange (SCE) in vitro, Assay Code: SCL+D, Dose Response: With dose response, Evaluation Type: Evaluation B (Post-1980)); “active; positive” under setting [2]. The mutagenic call under setting [3] is “no conclusion”; the mutagenic call (Species/Cell Type: Nonhuman bone marrow, Assay Type: Chromosome aberrations, in vivo, Assay Code: CY#+, Evaluation Type: Evaluation A (Pre-1980)) is “active; positive”; the mutagenic call (Species/Cell Type: Saccharomyces cerevisiae, Assay Type: Mitotic recombination or gene conversion, Assay Code: YEC+, Evaluation Type: Evaluation A (Pre-1980)) was “active; positive”; the mutagenic call (Species/Cell Type: Saccharomyces cerevisiae, Assay Type: Mitotic recombination or gene conversion, Assay Code: YEH+, Evaluation Type: Evaluation A (Pre-1980)) is “active; positive”; the mutagenic call under setting [5] is “inactive; negative”; the mutagenic call under setting [6] was “inactive; negative”. The mutagenic call runs as follows: under setting [7], “no conclusion”; (Species/Cell Type: Salmonella typhimurium, Saccharomyces cerevisiae, Assay Type: Forward and reverse gene mutation, mitotic recombination and gene conversion, DNA effects, host-mediated assay, Assay Code: HM3-, Evaluation Type: Evaluation A (Pre-1980)) “inactive; negative”; (Species/Cell Type: Vicia faba, Assay Type: Chromosome aberrations, Assay Code: VIC+, Evaluation Type: Evaluation A (Pre-1980)) “active; positive”. Further, the call under setting [4] is given as “no conclusion”.

Take `CCn1c(=O)c2c(ncn2CC)n(CC)c1=O`: under “Species/Cell Type: Allium cepa, Assay Type: Chromosome aberrations, Assay Code: ALC-, Evaluation Type: Evaluation A (Pre-1980)”, the mutagenic call is “inactive; negative”.

Turning to `O=C(NCCCCCCCCNC(=O)C(Cl)Cl)C(Cl)Cl`, where the note is “Species/Cell Type: Human, Sex: Male, Assay Type: Sperm morphology, Assay Code: SPH+, Evaluation Type: Evaluation A (Pre-1980)”, the mutagenic call is “active; positive”.

Regarding `NCC(=O)CCC(=O)O`, where the note is “Species/Cell Type: Rodents, Sex: Male, Assay Type: Dominant lethal test, Assay Code: DLT-, Evaluation Type: Evaluation A (Pre-1980)”, the mutagenic call was “inactive; negative”.

As to `Cc1cccn2c1nc1ccc(N)nc12`, the mutagenic call (Species/Cell Type: Human, Assay Type: Sister-chromatid exchange (SCE) in vitro, Assay Code: SC1+D*, Activation: With metabolic activation, Dose Response: With dose response, Evaluation Type: Evaluation B (Post-1980)) was “active; positive”.

Regarding `O=[N+]([O-])c1ccc(-c2nc(NCCO)c3ccccc3n2)s1`, the mutagenic call under setting [8] is “active; positive”.

Take `Oc1c2ccccc2c2ccc3cccc4ccc1c2c43`: the mutagenic call is “inactive; positive without activation, negative with activation” (Species/Cell Type: Chinese hamster lung (V79) cells, Assay Type: Forward gene mutation at the HPRT or ouabain locus, Assay Code: V79+/-*, Activation: With metabolic activation, Evaluation Type: Evaluation A (Pre-1980)) and “active; positive” under setting [8]. The call under setting [4] is recorded as “no conclusion”.

In the case of `O=C1NC(=O)C(=O)C(=O)N1`, under “Species/Cell Type: Neurospora crassa, Assay Type: Aneuploidy, chromosome aberrations, Assay Code: NEN-, Evaluation Type: Evaluation A (Pre-1980)”, the mutagenic call was “inactive; negative”.

On to `COc1cc2cc3c4cc(OC)c(OC)cc4cc[n+]3c(C)c2cc1OC` (tested in a mixture with another compound), for which the mutagenic call under setting [7] is listed as “no conclusion”.

Turning to `Cc1cc(C)cc(OC(=O)N(C)N=O)c1`, the mutagenic call is, setting by setting: (Species/Cell Type: Bacillus subtilis (H17 vs M45T), Assay Type: Rec-assay, spot test, DNA effects (bacterial DNA repair), Assay Code: REX+, Evaluation Type: Evaluation A (Pre-1980)) “active; positive”; (Species/Cell Type: Escherichia coli WP2, Assay Type: Tryptophan reverse gene mutation, Assay Code: WP2+, Evaluation Type: Evaluation A (Pre-1980)) “active; positive”.

For the molecule `CCCCOc1ccc(CC(=O)NOC(C)=O)cc1`, the mutagenic call under setting [9] was “active; positive”.

With `C/C=C/c1cn([C@H]2C[C@H](O)[C@@H](CO)O2)c(=O)[nH]c1=O`, under setting [2], the mutagenic call was “active; positive”.

As to `O=[N+]([O-])c1cnc[nH]1`, the mutagenic call under setting [7] is “no conclusion”.

Consider `NC(N)=NS(=O)(=O)c1ccc(N)cc1`, for which, under setting [6], the mutagenic call is “inactive; negative”.

Take `Cc1nc(-c2ccc([N+](=O)[O-])o2)cs1`: the mutagenic call is, setting by setting: (Species/Cell Type: Nonhuman, Assay Type: Sister-chromatid exchange (SCE) in vitro, Assay Code: SC2+D, Dose Response: With dose response, Evaluation Type: Evaluation B (Post-1980)) “active; positive”; under setting [8], “active; positive”.

As for `CC(=O)NO`, the mutagenic call (Species/Cell Type: Human lymphocytes or leukocytes, Assay Type: Chromosome aberrations in vitro, Assay Code: CY7-, Evaluation Type: Evaluation A (Pre-1980)) is “inactive; negative”.

Take `O=[N+]([O-])c1ccc(Oc2ccc(Cl)cc2Cl)cc1`: the mutagenic call under setting [3] is “no conclusion”. In addition, the call (Species/Cell Type: Nonhuman, Assay Code: CCG+, Evaluation Type: Evaluation A (Pre-1980)) was “active; positive”.

Regarding `CS(=O)(=O)OCCCNCCCOS(C)(=O)=O`, the mutagenic call under setting [8] was “active; positive”.

As to `CCCCNCCCC`, the mutagenic call (Species/Cell Type: Nonhuman, Assay Type: Chromosome aberrations in vitro, Assay Code: CY&+D, Dose Response: With dose response, Evaluation Type: Evaluation A (Pre-1980)) was “active; positive” and the mutagenic call (Species/Cell Type: Nonhuman, Assay Type: Sister-chromatid exchange (SCE) in vitro, Assay Code: SC2+, Evaluation Type: Evaluation A (Pre-1980)) is “active; positive”.

In the case of `Nc1ccc(O)c2c1C(=O)c1ccccc1C2=O`, the mutagenic call under setting [8] is “active; positive”.

Take `C[C@H](CCC(=O)O)[C@H]1CC[C@H]2[C@@H]3CC[C@@H]4C[C@H](O)CC[C@]4(C)[C@H]3CC[C@]12C`: the mutagenic call (Species/Cell Type: Fischer rat embryo (RLV/1706) cells, Assay Type: Cell transformation, viral enhanced, Assay Code: CTR+, Evaluation Type: Evaluation A (Pre-1980)) is “active; positive” and the mutagenic call (Species/Cell Type: Syrian hamster embryo (SHE) cells, Assay Type: Cell transformation, clonal assay, Assay Code: CTCT, Evaluation Type: Evaluation A (Pre-1980)) is reported as “no conclusion”.

For the molecule `O=C1c2ccccc2C(=O)c2c(O[C@@H]3O[C@H](CO)[C@@H](O)[C@H](O)[C@H]3O)ccc(O)c21`, the mutagenic call (Species/Cell Type: Salmonella typhimurium (one or more of the five standard strains: TA98, TA100, TA1535, TA1537, and TA1538), Assay Type: Histidine reverse gene mutation, Ames assay, Assay Code: SAL+*, Activation: With metabolic activation, Evaluation Type: Evaluation A (Pre-1980)) was “active; positive”.

In the case of `c1ccc2cc3c4c(ccc3cc2c1)CCC1OC41` (stereo not given), the mutagenic call under setting [1] is “active; positive”.

Take `CN(CC(C)(C)C)N=O`: the mutagenic call under setting [7] is “no conclusion”.

Take `C1CC[C@H]2O[C@H]2C1`: the mutagenic call by setting is: under setting [9], “active; positive”; (Species/Cell Type: Nonhuman, Assay Type: Sister-chromatid exchange (SCE) in vitro, Assay Code: SC2T, Evaluation Type: Evaluation A (Pre-1980)) “no conclusion”.

Turning to `NC[C@H]1O[C@H](O[C@H]2[C@H](O[C@@H]3O[C@H](CO)[C@@H](O)[C@H]3O)[C@@H](O)[C@H](N)C[C@@H]2N)[C@H](N)[C@@H](O)[C@@H]1O`, the mutagenic call under setting [5] was “inactive; negative”.
